This passage reports IC50 results from patent EP0745597A2, “Novel melatonergic indanyl piperazines or homopiperazines” (BRISTOL-MYERS SQUIBB COMPANY, priority 1995, dated 1996).

“And” between values parts separate entries of the source, which are not always exact repeats. Equal entries are not always repeated.

The target in the test is T1, human ML1B receptor (Homo sapiens, UniProt P49286).
T1 construct: host or cells: NIH 3T3 cells, stably transfected; membrane homogenates
T1 sequence (P49286 1-362): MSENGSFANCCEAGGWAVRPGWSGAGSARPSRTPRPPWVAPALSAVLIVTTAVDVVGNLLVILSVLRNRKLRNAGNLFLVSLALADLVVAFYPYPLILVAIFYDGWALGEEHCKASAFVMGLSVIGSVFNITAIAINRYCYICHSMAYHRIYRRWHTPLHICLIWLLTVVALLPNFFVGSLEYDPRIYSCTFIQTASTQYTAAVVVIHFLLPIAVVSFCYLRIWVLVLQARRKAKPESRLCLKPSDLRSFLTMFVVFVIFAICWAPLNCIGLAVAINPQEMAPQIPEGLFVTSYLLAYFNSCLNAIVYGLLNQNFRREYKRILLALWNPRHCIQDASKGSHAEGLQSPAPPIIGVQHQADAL
Kind of test: Measurement of binding to melatonergic receptors (2-[125I]-iodomelatonin, membranes of transfected NIH 3T3 cells). As to conditions: 2-[125I]-Iodomelatonin 200 pM, 37 °C for 1 hour, NIH 3T3 cells stably transfected with the human ML1B receptor; read-out: Melatonin Binding. Here is the method: The melatonergic binding affinities of various compounds of Formula I were determined by the method of Reppert, S. M., Weaver, D. R., and Ebisawa, R. (Neuron, Volume 13, 1177-1185, 1994). The assays were incubated at 37 °C for 1 hour, and the reaction was terminated by filtration. The filters were washed with wash buffer. […] The reagents, membrane and other techniques used in the melatonergic binding assays are more fully described below: • 1. Reagents: • (a) 50 mM Tris buffer containing 12.5 mM MgCl2, and 2mM EDTA, pH 7.4 at 37 °C. • (b) Wash buffer: 20 mM Tris base containing 2 mM MgCl2. pH 7.4 at room temperature. • (c) Melatonin (10^-5 M final concentration). • (d) 2-[^125I]-Iodomelatonin, 200 pM final concentration Source: NEN • 2. Membrane preparation: NIH 3T3 cells stably transfected with the human ML1B receptor were obtained from S.M. Reppert and maintained. Cells were pelleted when confluent. The supernatant was discarded and the pellets frozen. For preparing membrane homogenates, the pellets are thawed on ice and resuspended in TME buffer, Tris base, MgCl2, EDTA (pH 7.4 at 37 °C ), supplemented with aprotinin, leupeptin, and […]. The cells were then homogenized and centrifuged. The resulting pellet was resuspended with a Dounce homogenizer in TME and frozen. At assay, a small aliquot was thawed on ice and resuspended in TME buffer. […] These compounds are considered active.

On to `COc1ccc2c(c1)C(N1CCN(C(=O)C3CC3)CC1)CCC2` (centres unmarked) [1-(Cyclopropylcarbonyl)-4-(7-methoxy-tetralin-1-yl)piperazine], for which the IC50 lay within 100 to 250 nM. In the case of `CCC(=O)C(=O)N1CCN(C2CCc3ccc(OC)cc32)CC1` (single isomer, unassigned; (-)) [(-)-4-(6-Methoxy-indan-1-yl)-1-(2-oxo-butanoyl)piperazine], the IC50 was in the range of 10 to 100 nM. As to `C=CCCC(=O)N1CCN(C2CCc3ccc(OC)cc32)CC1` (single isomer, unassigned; (-)) [(-)-4-(6-Methoxy-indan-1-yl)-1-(4-pentenoyl)piperazine], the IC50 lay in the range of 100 to 250 nM. Then `COc1ccc2c(c1)C(N1CCN(C(=O)c3cccn3C)CC1)CC2` (single isomer, unassigned; (-)) [(-)-4-(6-Methoxy-indan-1-yl)-1-[(1-methyl-pyrrol-2-yl)carbonyl]piperazine], with less than 10 nM; and `CNC(=O)N1CCN(C2CCc3ccc(OC)cc32)CC1` (centres unmarked) [N-Methyl-4-(6-methoxy-indan-1-yl)piperazine-1-carboxamide], with less than 10 nM.

Regarding `COc1ccc2c(c1)C(N1CCN(C(=O)NC(C)C)CC1)CC2` (centres unmarked) [N-(1-Methylethyl)-4-(6-methoxy-indan-1-yl)piperazine-1-carboxamide], the IC50 fell in the range of 10 to 100 nM. With `COc1ccc2c(c1)C(N1CCN(C(=O)NC3CC3)CC1)CC2` (centres unmarked) [N-Cyclopropyl-4-(6-methoxy-indan-1-yl)piperazine-1-carboxamide], the IC50 was less than 10 nM. Under `COc1ccc2c(c1)C(N1CCN(C(=O)c3csnn3)CC1)CC2` (single isomer, unassigned; (-)) [(-)-4-(6-Methoxy-indan-1-yl)-1-[(1,2,3-thiadiazol-4-yl)carbonyl]-piperazine] stands 10 to 100 nM. As for `CCC(=O)N1CCN(C2CCc3ccc(OC)cc32)CC1` (centres unmarked) [4-(6-Methoxy-indan-1-yl)-1-propanoylpiperazine], the IC50 lay in the range of 10 to 100 nM. As for `COc1cc2c(cc1F)CCC2N1CCN(C(=O)C(C)C)CC1` (centres unmarked) [4-(5-Fluoro-6-methoxy-indan-1-yl)-1-(2-methylpropanoyl)piperazine], the IC50 is 10 to 100 nM. Take `COc1ccc2c(c1)C(N1CCN(C(=O)c3ccccc3)CC1)CC2` (single isomer, unassigned; (-)) [(-)-1-(Benzoyl)-4-(6-methoxy-indan-1-yl)piperazine]: the IC50 fell in the range of 100 to 250 nM. For the compound `COc1ccc2c(c1)C(N1CCN(C(=O)c3ccc(Br)o3)CC1)CC2` (single isomer, unassigned; (-)) [(-)-1-[(5-Bromo-furan-2-yl)carbonyl]-4-(6-methoxy-indan-1-yl)piperazine], the IC50 was 10 to 100 nM. Take `CNC(=O)N1CCN(C2CCCc3ccc(OC)cc32)CC1` (centres unmarked) [N-Methyl-4-(7-methoxy-tetralin-1-yl)piperazine-1-carboxamide]: the IC50 was 10 to 100 nM. Consider `COc1ccc2c(c1)C(N1CCN(C(=O)CSC)CC1)CC2` (single isomer, unassigned; (-)) [(-)-4-(6-Methoxy-indan-1-yl)-1-(2-methylthioacetyl)piperazine], for which the IC50 is less than 10 nM.

As to `CCC(C)C(=O)N1CCN(C2CCc3ccc(OC)cc32)CC1` (centres unmarked) [4-(6-Methoxy-indan-1-yl)-1-(2-methyl-butanoyl)piperazine], the IC50 lay within 10 to 100 nM. As to `CCc1ccc2c(c1)C(N1CCN(C(=O)C3CC3)CC1)CC2` (centres unmarked) [1-(Cyclopropylcarbonyl)-4-(6-ethyl-indan-1-yl)piperazine], the IC50 fell in the range of 100 to 250 nM. For the compound `COc1ccc2c(c1)C(N1CCN(C(=O)C3CCCC3)CC1)CC2` (centres unmarked) [1-(Cyclopentylcarbonyl)-4-(6-methoxy-indan-1-yl)piperazine], the IC50 was 10 to 100 nM. Then `CCC(C)(C)C(=O)N1CCN(C2CCc3ccc(OC)cc32)CC1` (single isomer, unassigned; (-)) [(-)-1-(2,2-Dimethyl-butanoyl)-4-(6-methoxy-indan-1-yl)piperazine], with 10 to 100 nM; and `CCNC(=O)N1CCN(C2CCc3ccc(OCC)cc32)CC1` (centres unmarked) [N-Ethyl-4-(6-ethoxy-indan-1-yl)piperazine-1-carboxamide], with 10 to 100 nM. Under `CCCOc1ccc2c(c1)C(N1CCN(C(=O)NCC)CC1)CC2` (centres unmarked) [N-Ethyl-4-(6-propyloxy-indan-1-yl)piperazine-1-carboxamide] stands 10 to 100 nM; under `COc1ccc2c(c1)C(N1CCN(C(=O)c3cccs3)CC1)CC2` (centres unmarked) [4-(6-Methoxy-indan-1-yl)-1-[(2-thienyl)carbonyl]piperazine], less than 10 nM; under `CCNC(=O)N1CCN(C2CCc3cc(F)c(OC)cc32)CC1` (centres unmarked) [N-Ethyl-4-(5-fluoro-6-methoxy-indan-1-yl)piperazine-1-carboxamide], 10 to 100 nM.

On to `CCCOc1ccc2c(c1)C(N1CCN(C(=O)C3CC3)CC1)CC2` (centres unmarked) [1-(Cyclopropylcarbonyl)-4-[6-(1-propyloxy)indan-1-yl]piperazine], for which the IC50 was 10 to 100 nM.

Consider `COc1ccc2c(c1)C(N1CCN(C(=O)C3(C)CCCCC3)CC1)CC2` (single isomer, unassigned; (-)) [(-)-1-[(1-Methylcyclohexyl)carbonyl]-4-(6-methoxy-indan-1-yl)piperazine], for which the IC50 is 100 to 250 nM. Regarding `CCOc1ccc2c(c1)C(N1CCN(C(=O)C3CC3)CC1)CC2` (centres unmarked) [1-(Cyclopropylcarbonyl)-4-(6-ethoxy-indan-1-yl)piperazine], the IC50 was less than 10 nM. Take `COc1ccc2c(c1)C(N1CCN(C(=O)C(C)C)CC1)CC2` (centres unmarked) [4-(6-Methoxy-indan-1-yl)-1-(2-methyl-propanoyl)piperazine]: the IC50 was < 10 nM and 100 to 250 nM. With `COc1ccc2c(c1)C(N1CCN(C(=O)c3ccco3)CC1)CC2` (centres unmarked) [1-[(2-Furanyl)carbonyl]-4-(6-methoxy-indan-1-yl)piperazine], the IC50 was less than 10 nM. As for `COc1ccc2c(c1)C(N1CCN(C(C)=O)CC1)CC2` (centres unmarked) [1-Acetyl-4-(6-methoxy-indan-1-yl)piperazine], the IC50 is 100 to 250 nM. `CCCCCCCCCOc1ccc2c(c1)C(N1CCN(C(=O)NCC)CC1)CC2` (centres unmarked) [N-Ethyl-4-(6-nonyloxy-indan-1-yl)piperazine-1-carboxamide]: the IC50 was in the range of 10 to 100 nM.

With `COc1ccc2c(c1)C(N1CCCN(C(=O)C3CC3)CC1)CC2` (centres unmarked) [1-(Cyclopropylcarbonyl)-4-(6-methoxy-indan-1-yl)homopiperazine], the IC50 was in the range of 10 to 100 nM.

Regarding `COc1ccc2c(c1)C(N1CCN(C(=O)C=C(C)C)CC1)CC2` (single isomer, unassigned; (-)) [(-)-1-[(2,2-Dimethyl-ethenyl)carbonyl]-4-(6-methoxy-indan-1-yl)piperazine], the IC50 lay in the range of 10 to 100 nM. Then `CCNC(=O)N1CCN(C2CCc3ccc(OC)cc32)CC1` (centres unmarked) [N-Ethyl-4-(6-methoxy-indan-1-yl)piperazine-1-carboxamide], with 10 to 100 nM. In the case of `COCC(=O)N1CCN(C2CCc3ccc(OC)cc32)CC1` (centres unmarked) [1-(Methoxyacetyl)-4-(6-methoxy-indan-1-yl)piperazine], the IC50 fell in the range of 10 to 100 nM. Consider `COc1ccc2c(c1)C(N1CCN(C(=O)CCl)CC1)CC2` (single isomer, unassigned; (-)) [(-)-1-(Chloroacetyl)-4-(6-methoxy-indan-1-yl)piperazine], for which the IC50 lay in the range of 10 to 100 nM.

Consider `COc1ccc2c(c1)C(N1CCN(C(=O)c3ccc(Cl)s3)CC1)CC2` (single isomer, unassigned; (-)) [(-)-1-[(5-Chloro-thien-2-yl)carbonyl]-4-(6-methoxy-indan-1-yl)piperazine], for which the IC50 lay in the range of 100 to 250 nM. For the compound `CCOC(=O)N1CCN(C2CCc3ccc(OC)cc32)CC1` (centres unmarked) [1-(Ethoxycarbonyl)-4-(6-methoxy-indan-1-yl)piperazine], the IC50 is 100 to 250 nM. For the compound `COc1ccc2c(c1)C(N1CCN(C(=O)c3ccccc3Cl)CC1)CC2` (single isomer, unassigned; (-)) [(-)-1-(2-Chlorobenzoyl)-4-(6-methoxy-indan-1-yl)piperazine], the IC50 is 100 to 250 nM. Regarding `CCNC(=O)N1CCN(C2CCCc3ccc(OC)cc32)CC1` (centres unmarked) [N-Ethyl-4-(7-methoxy-tetralin-1-yl)piperazine-1-carboxamide], the IC50 fell in the range of 100 to 250 nM. For `O=C(C1CC1)N1CCN(C2CCc3ccccc32)CC1` (centres unmarked) [1-(Cyclopropylcarbonyl)-4-(indan-1-yl)piperazine], the IC50 is 100 to 250 nM. Then `C=CC(=O)N1CCN(C2CCc3ccc(OC)cc32)CC1` (centres unmarked) [1-(Ethenylcarbonyl)-4-(6-methoxy-indan-1-yl)piperazine], with 10 to 100 nM; and `COc1ccc2c(c1)C(N1CCN(C(=O)c3occc3C)CC1)CC2` (single isomer, unassigned; (-)) [(-)-4-(6-Methoxy-indan-1-yl)-1-[(3-methyl-furan-2-yl)carbonyl]piperazine], with less than 10 nM.
